Experimental data from patent US20170190671A1, “BIS(ARYL)CATECHOL DERIVATIVES AS HERBICIDES” (E I DU PONT DE NEMOURS AND COMPANY, priority 2014, published 2017).

Legend:
Conditions in all cases: scale 0 to 100
[1] = test system: Italian ryegrass (Lolium multiflorum); assay: Test D preemergence; assay type: in vivo
Procedure, shortened: (§1)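 Assessment is visual, relative to untreated controls, 14 to 21 days after application, with 100 meaning complete control. Seeds in silt loam receive preemergence spray; seedlings at the 1- to 4-leaf stage receive postemergence spray.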

[2] = test system: blackgrass (Alopecurus myosuroides); assay: Test D preemergence; assay type: in vivo
Procedure, shortened: as §1

[3] = test system: canarygrass (Phalaris minor); assay: Test D preemergence; assay type: in vivo
Procedure, shortened: as §1

[4] = test system: downy bromegrass (Bromus tectorum); assay: Test D preemergence; assay type: in vivo
Procedure, shortened: as §1

[5] = test system: lambsquarters (Chenopodium album); assay: Test D preemergence; assay type: in vivo
Procedure, shortened: as §1

[6] = test system: wild mustard (Sinapis arvensis); assay: Test D preemergence; assay type: in vivo
Procedure, shortened: as §1

[7] = test system: wild radish (Raphanus raphanistrum); assay: Test D preemergence; assay type: in vivo
Procedure, shortened: as §1

[8] = test system: winter barley (Hordeum vulgare); assay: Test D preemergence; assay type: in vivo
Procedure, shortened: as §1

wild oat (Avenafatua) [9] = assay: Test D preemergence; assay type: in vivo, Avena fatua
Source text: (§2) Seeds of plant species selected from bluegrass (annual bluegrass, Poa annua), blackgrass (Alopecurus myosuroides), canarygrass (Phalaris minor), chickweed (common chickweed, Stellaria media), cutleaf geranium (Geranium dissectum), galium (catchweed bedstraw, Galium aparine), downy bromegrass (Bromus tectorum), field poppy (Papaver rhoeas), field violet (Viola arvensis), green foxtail (Setaria viridis), deadnettle (henbit deadnettle, Lamium amplexicaule), Italian ryegrass (Lolium multiflorum), kochia (Kochia scoparia), lambsquarters (Chenopodium album), oilseed rape (Brassica napus), pigweed (Amaranthus retroflexus), chamomile (scentless chamomile, Matricaria inodora), Russian thistle (Salsola kali), speedwell (bird's-eye speedwell, Veronica persica), spring barley (Hordeum vulgare), spring wheat (Triticum aestivum), wild buckwheat (Polygonum convolvulus), wild mustard (Sinapis arvensis), wild oat (Avenafatua), wild radish (Raphanus raphanistrum), windgrass (Apera spica-venti), winter barley (Hordeum vulgare), and winter wheat (Triticum aestivum) were planted into a silt loam soil and treated preemergence with test chemicals formulated in a non-phytotoxic solvent mixture which included a surfactant.
(§3) At the same time, these species were planted in pots containing Redi-Earth® planting medium (Scotts Company, 14111 Scottslawn Road, Marysville, Ohio 43041) comprising spaghnum peat moss, vermiculite, wetting agent and starter nutrients and treated with postemergence applications of the test chemicals formulated in the same manner. Plants ranged in height from 2 to 18 cm (1- to 4-leaf stage). Treated plants and controls were maintained in a controlled growth environment for 14 to 21 days after which time all species were compared to controls and visually evaluated. Plant response ratings, summarized in Table D, are based on a scale of 0 to 100 where 0 is no effect and 100 is complete control. A dash (-) response means no test result.

wild oat (Avenafatua) [10] = assay: Test D postemergence; assay type: in vivo, Avena fatua
Source text: as §2, §3

Fc1cccc(Oc2ncc(C(F)(F)F)cn2)c1Oc1ncc(Cl)cn1 [Compound 42, 5-chloro-2-[2-fluoro-6-[[5-(trifluoromethyl)-2-pyrimidinyl]oxy]phenoxy]pyrimidine]
Plant response rating, Ryegrass, Italian ([1]; 16 g ai/ha): 0
Plant response rating, Ryegrass, Italian ([1]; 31 g ai/ha): 0
Plant response rating, Ryegrass, Italian ([1]; 62 g ai/ha): 35
Plant response rating, Ryegrass, Italian ([1]; 125 g ai/ha): 70
Plant response rating, Blackgrass ([2]; 16 g ai/ha): 0
Plant response rating, Blackgrass ([2]; 31 g ai/ha): 10
Plant response rating, Blackgrass ([2]; 62 g ai/ha): 35
Plant response rating, Blackgrass ([2]; 125 g ai/ha): 75
Plant response rating, Canarygrass ([3]; 16 g ai/ha): 15
Plant response rating, Canarygrass ([3]; 31 g ai/ha): 35
Plant response rating, Canarygrass ([3]; 62 g ai/ha): 35
Plant response rating, Canarygrass ([3]; 125 g ai/ha): 100
Plant response rating, Bromegrass, Downy ([4]; 16 g ai/ha): 0
Plant response rating, Bromegrass, Downy ([4]; 31 g ai/ha): 10
Plant response rating, Bromegrass, Downy ([4]; 62 g ai/ha): 50
Plant response rating, Bromegrass, Downy ([4]; 125 g ai/ha): 65
Plant response rating, Lambsquarters ([5]; 16 g ai/ha): 85
Plant response rating, Lambsquarters ([5]; 31 g ai/ha): 100
Plant response rating, Lambsquarters ([5]; 62 g ai/ha): 100
Plant response rating, Lambsquarters ([5]; 125 g ai/ha): 100
Plant response rating, Mustard, Wild ([6]; 16 g ai/ha): 70
Plant response rating, Mustard, Wild ([6]; 31 g ai/ha): 65
Plant response rating, Mustard, Wild ([6]; 62 g ai/ha): 85
Plant response rating, Mustard, Wild ([6]; 125 g ai/ha): 100
Plant response rating, Radish, Wild ([7]; 16 g ai/ha): 25
Plant response rating, Radish, Wild ([7]; 62 g ai/ha): 85
Plant response rating, Radish, Wild ([7]; 125 g ai/ha): 100
Plant response rating, Barley, Winter ([8]; 16 g ai/ha): 0
Plant response rating, Barley, Winter ([8]; 31 g ai/ha): 0
Plant response rating, Barley, Winter ([8]; 62 g ai/ha): 15
Plant response rating, Barley, Winter ([8]; 125 g ai/ha): 80
Plant response rating, Oat, Wild (wild oat (Avenafatua) [9]; 16 g ai/ha): 5
Plant response rating, Oat, Wild (wild oat (Avenafatua) [9]; 31 g ai/ha): 5
Plant response rating, Oat, Wild (wild oat (Avenafatua) [9]; 62 g ai/ha): 50
Plant response rating, Oat, Wild (wild oat (Avenafatua) [9]; 125 g ai/ha): 95
Plant response rating, Oat, Wild (wild oat (Avenafatua) [10]; 16 g ai/ha): 25
Plant response rating, Oat, Wild (wild oat (Avenafatua) [10]; 31 g ai/ha): 45
Plant response rating, Oat, Wild (wild oat (Avenafatua) [10]; 62 g ai/ha): 40
Plant response rating, Oat, Wild (wild oat (Avenafatua) [10]; 125 g ai/ha): 70
